According to patent US8367698B2, “3-substituted sulfonyl piperidine derivative” (MSD K.K., priority 2008, dated 2013):

What follows are molecules tested against T1, human LCE (Homo sapiens, UniProt Q9H5J4) (assay: LCE enzymatic activity inhibition test). Settings: palmitoyl-CoA and [14C]-malonyl-CoA substrate, 37° C. for 90 minutes, pH 6.5.
T1 sequence (Q9H5J4 1-265): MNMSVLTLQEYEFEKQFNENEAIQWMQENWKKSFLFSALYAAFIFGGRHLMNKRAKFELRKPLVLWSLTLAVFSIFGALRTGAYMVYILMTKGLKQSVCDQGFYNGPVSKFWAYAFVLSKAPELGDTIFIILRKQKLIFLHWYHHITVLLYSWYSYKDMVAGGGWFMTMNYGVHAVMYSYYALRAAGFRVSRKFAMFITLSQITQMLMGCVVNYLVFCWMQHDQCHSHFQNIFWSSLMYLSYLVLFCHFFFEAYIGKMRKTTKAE
Format: biochemical
Description: A test compound was dissolved in dimethylsulfoxide (DMSO) at 10 mM, and then, the resulting solution was further diluted with DMSO to prepare a 1000-fold stock solution having a concentration 1000 times higher than the concentration to be evaluated. An LCE enzymatic activity inhibition test was carried out by a modified method of Moon (J. Biol. Chem., Vol. 276, pp. 45358-45366, (2001)) et al. That is, the diluted test compound was added to a 96-well assay plate (Corning, 96-Well Assay Block) in an amount of 1.0 μL per well, and thereafter, 50 μL of a phosphate buffer solution (a 100 mM potassium phosphate buffer solution (pH 6.5)), 25 μL of a substrate solution (a 100 mM potassium phosphate buffer solution (pH 6.5), 4.0 μM rotenone, 80 μM fatty acid-free bovine serum albumin, 160 μM palmitoyl-CoA, 80 μM malonyl-CoA, 3.5 μM [^14C]-malonyl-CoA (1.92 GBq/mmol, manufactured by Amersham, Inc.)) was added to each well, and further, 25 μL of an enzyme solution (a 100 mM potassium phosphate buffer solution (pH 6.5), 100 μg/mL human LCE) was added thereto. Then, the upper part of the plate was hermetically closed with a seal member, and the plate was incubated at 37° C. for 90 minutes while gently shaking and stirring. Thereafter, to each well, 100 μL of 5 N HCl was added and the assay plate was stirred at room temperature for 5 minutes, whereby the enzymatic reaction was stopped and also acyl-CoA was hydrolyzed. Thereafter, the enzymatic reaction solution in each well was adsorbed to each well of a 96-well GF/C filter plate (PerkinElmer, Unifilter 96GF/C) through which water had been passed in advance, and then, each well was washed with water to remove unadsorbed malonyl-CoA and the GF/C filter plate was dried at 50° C. for 60 minutes. Thereafter, to each well, 30 μL of a scintillator (PerkinElmer, Microscinti 0) was added and the upper part of the plate was sealed, and the radioactivity of the fixed [^14C] was measured using a microplate scintillation counter (PerkinElmer, Top Count) from which the enzymatic activity was determined. The human LCE enzyme inhibitory activity of the test compound was calculated using the radioactivity obtained from a well to which DMSO containing no test compound is added as a control.
With `CC(C)Oc1ccc(NC(=O)[C@@H]2C[C@@H]3CC[C@H]2N(S(=O)(=O)c2cn(C)cn2)C3)cc1` (relative stereo) [Example 26, (1R*,4S*,6R*)-N-(4-Isopropoxyphenyl)-2-[(1-methyl-1H-imidazol-4-yl)sulfonyl]-2-azabicyclo[2.2.2]octane-6-carboxamide] the IC50 was 0.268 µM.
Molecule `CCCCS(=O)(=O)N1C[C@H]2CC[C@@H]1[C@H](C(=O)Nc1cc(C3CC3)n[nH]1)C2` (relative stereo) [Example 42, (1R*,4S*,6R*)-2-(Butylsulfonyl)-N-(3-cyclopropyl-1H-pyrazol-5-yl)-2-azabicyclo[2.2.2]octane-6-carboxamide] has an IC50 of 0.155 µM.
With `CC(C)Oc1ccc(NC(=O)[C@@H]2C[C@@H]3CC[C@H]2N(S(=O)(=O)c2ccccn2)C3)nc1` (relative stereo) [Example 47, (1R*,4S*,6R*)-N-(5-Isopropoxypyridin-2-yl)-2-(pyridin-2-ylsulfonyl)-2-azabicyclo[2.2.2]octane-6-carboxamide] the IC50 was 0.019 µM.
Molecule `CC(C)Oc1ccc(NC(=O)[C@@H]2C[C@@H]3CC[C@H]2N(S(=O)(=O)c2cn(C)cn2)C3)nc1` (relative stereo) [Example 48, (1R*,4S*,6R*)-N-(5-isopropoxypyridin-2-yl)-2-[(1-methyl-1H-imidazol-4-yl)sulfonyl]-2-azabicyclo[2.2.2]octane-6-carboxamide] has an IC50 of 0.159 µM.
For `CC(C)Oc1cc(NC(=O)[C@@H]2C[C@@H]3CC[C@H]2N(S(=O)(=O)c2cn(C)cn2)C3)n[nH]1` (relative stereo) [Example 105, (1R*,4S*,6R*)-N-(5-Isopropoxy-1H-pyrazol-3-yl)-2-[(1-methyl-1H-imidazol-4-yl)sulfonyl]-2-azabicyclo[2.2.2]octane-6-carboxamide], the IC50 was 0.132 µM.
In the case of `COc1ccccc1C(=O)NCC1(c2ccccc2)CCCN(S(=O)(=O)c2ccccn2)C1` (stereo not drawn) [Example 64, 2-Methoxy-N-{[3-phenyl-1-(pyridin-2-ylsulfonyl)piperidin-3-yl]methyl}benzamide], the IC50 is reported as 0.02 µM.
For `CC(C)Oc1ccc(C(=O)NCC2(c3ccccc3)CCCN(S(=O)(=O)c3ccccn3)C2)cc1` (stereo not drawn) [Example 73, 4-Isopropoxy-N-{[3-phenyl-1-(pyridin-2-ylsulfonyl)piperidin-3-yl]methyl}benzamide], the IC50 was 0.0037 µM.
Work on `CC(C)Oc1ccc(C(=O)NCC2(c3ccccc3)CCCN(S(=O)(=O)c3cn(C)cn3)C2)cc1` (stereo not drawn) [Example 74, 4-Isopropoxy-N-({1-[(1-methyl-1H-imidazol-4-yl)sulfonyl]-3-phenylpiperidin-3-yl}methyl)benzamide] yielded an IC50 of 0.0174 µM.
`CCCS(=O)(=O)N1CCCC(CNC(=O)c2ccc(OC(C)C)cn2)(c2ccccc2)C1` (stereo not drawn) [Example 76, 5-Isopropoxy-N-{[3-phenyl-1-(propylsulfonyl)piperidin-3-yl]methyl}pyridine-2-carboxamide] gave an IC50 of 0.044 µM.
`CC(C)Oc1ccc(C(=O)NCC2(c3ccccc3)CCCN(S(=O)(=O)c3ccccn3)C2)nc1` (stereo not drawn) [Example 78, 5-Isopropoxy-N-{[3-phenyl-1-(pyridin-2-ylsulfonyl)piperidin-3-yl]methyl}pyridine-2-carboxamide] gave an IC50 of 0.014 µM.
`CC(C)Oc1ccc(C(=O)NCC2(c3ccccc3)CCCN(S(=O)(=O)c3cn(C)cn3)C2)nc1` (stereo not drawn) [Example 79, 5-Isopropoxy-N-({1-[(1-methyl-1H-imidazol-4-yl)sulfonyl]-3-phenylpiperidin-3-yl}methyl)pyridine-2-carboxamide] was tested, and the IC50 was 0.049 µM.
Molecule `CC(C)Oc1ccc(C(=O)NCC2(C)CCCN(S(=O)(=O)c3ccccc3)C2)cc1` (stereo not drawn) [Example 81, 4-Isopropoxy-N-{[3-methyl-1-(phenylsulfonyl)piperidin-3-yl]methyl}benzamide] has an IC50 of 0.051 µM.
`CC(C)Oc1ccc(C(=O)NCC2(C)CCCN(S(=O)(=O)c3ccccn3)C2)cc1` (stereo not drawn) [Example 82, 4-Isopropoxy-N-{[3-methyl-1-(pyridin-2-ylsulfonyl)piperidin-3-yl]methyl}benzamide] was tested, and the IC50 was 0.06 µM.
`CCC1(CNC(=O)c2ccc(OC(C)C)cc2)CCCN(S(=O)(=O)c2ccccn2)C1` (stereo not drawn) [Example 85, N-{[3-Ethyl-1-(pyridin-2-ylsulfonyl)piperidin-3-yl]methyl}-4-isopropoxybenzamide] gave an IC50 of 0.014 µM.
In the case of `CCC1(CNC(=O)c2ccc(OC(C)C)cc2)CCCN(S(=O)(=O)c2cn(C)cn2)C1` (stereo not drawn) [Example 86, N-({3-Ethyl-1-[(1-methyl-1H-imidazol-4-yl)sulfonyl]piperidin-3-yl}methyl)-4-isopropoxybenzamide], the IC50 is reported as 0.284 µM.
Work on `CC(C)Cc1cc(C(=O)NCC2(c3ccccc3)CCCN(S(=O)(=O)c3cn(C)cn3)C2)[nH]n1` (stereo not drawn) [Example 98, 3-Isobutyl-N-({1-[(1-methyl-1H-imidazol-4-yl)sulfonyl]-3-phenylpiperidin-3-yl}methyl)-1H-pyrazole-5-carboxamide] yielded an IC50 of 0.012 µM.
In the case of `CCC1(C(=O)Nc2ccc(OC(C)C)cn2)CCCN(S(=O)(=O)c2cn(C)cn2)C1` (stereo not drawn) [Example 103, 3-Ethyl-N-(5-isopropoxypyridin-2-yl)-1-[(1-methyl-1H-imidazol-4-yl)sulfonyl]piperidine-3-carboxamide], the IC50 is reported as 0.035 µM.
Molecule `CCC1(C(=O)Nc2cc(OC(C)C)[nH]n2)CCCN(S(=O)(=O)c2cn(C)cn2)C1` (stereo not drawn) [Example 104, 3-Ethyl-N-(5-isopropoxy-1H-pyrazol-3-yl)-1-[(1-methyl-1H-imidazol-4-yl)sulfonyl]piperidine-3-carboxamide] has an IC50 of 0.038 µM.
